Experimental data from patent US20260001928A1 (CORTERIA PHARMACEUTICALS, priority 2022, published 2026).
*1 amine or outer side, *2 acyl side, *3 side chain or, on linkers, in order; H or OH if unused. Where a SMILES comes first, the peptide text is derived from it. Side-chain parts run from the residue outwards. [ ]: non-standard residue; d: D form. The star is where a group is joined. C20 diacid = O=C(O)CCCCCCCCCCCCCCCCCCC(=O)*; γGlu = O=C(O)[C@H](CCC(=O)[*:2])N[*:1]; NMeI = CC[C@H](C)[C@H](NC)C(=O)O; Pentanoyl = CCCCC(=O)*; Aib = CC(C)(N)C(=O)O

Key:
[1] = biological target: T1, CFR1R receptor (Homo sapiens, UniProt P34998); assay: Activity at anti-target CFR1R receptor, cAMP assay in CRF1R-overexpression CHO-K1 cells; format: cell-based; settings: 100% = Sauvagine at 100 nM
T1 construct: host or cells: CHO-K1 (clone 2)
T1 sequence (P34998 24-415): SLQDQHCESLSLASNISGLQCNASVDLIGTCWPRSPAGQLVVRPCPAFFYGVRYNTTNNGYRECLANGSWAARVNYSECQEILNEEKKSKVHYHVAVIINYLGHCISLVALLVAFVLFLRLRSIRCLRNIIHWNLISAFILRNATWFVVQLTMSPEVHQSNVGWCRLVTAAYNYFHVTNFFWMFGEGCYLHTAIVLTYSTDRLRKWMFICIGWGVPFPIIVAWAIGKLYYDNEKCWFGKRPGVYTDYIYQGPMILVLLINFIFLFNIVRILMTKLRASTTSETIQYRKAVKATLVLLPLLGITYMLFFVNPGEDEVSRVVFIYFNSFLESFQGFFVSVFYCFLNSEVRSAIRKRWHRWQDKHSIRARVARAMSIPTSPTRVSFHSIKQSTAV
Method in brief: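 Clone 2 cells were cultured in F12 (Hams)/10% FBS/400 μg/ml G418 at 37° C./5% CO2, frozen in medium with 10% DMSO, and thawed vials used. The protocol followed the TeloHAEC procedure, with 4000 cells/well final and Sauvagine at 100 nM defining 100% activation.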

[2] = tested on: Sprague Dawley rats; assay: Effect on systolic blood pressure, telemetry in Sprague Dawley rats; format: in vivo, rat; settings: 0.1 mg/kg SC; for Systolic blood pressure (Mean) % change from baseline, 8 h / Systolic blood pressure (Mean) % change from baseline, 12 h / Systolic blood pressure (Mean) % change from baseline, 24 h: n=2; for Duration of action: last time point with an effect on BP still observed
Method: The effect of the compounds on systolic blood pressure was determined in telemetry studies in Sprague Dawley rats at a dosage of 0.1 mg/kg SC.
The rats were previously implanted with a telemetry device (DSI, Saint-Paul, USA, HD-S10, HD-S11 or HD S21) and allowed to recover for a minimum period of 2 weeks before treatment with vehicle or the different peptides. Blood pressure (BP) was recorded through a catheter inserted into the abdominal aorta. The device body was placed in the abdomen. The animals were allowed to recover from surgery for at least 10 days before the first administration of test drug or vehicle.
The chronically instrumented rats of the telemetry studies were individually housed immediately after surgery and then housed in pairs with a non-instrumented companion after recovery.
Systolic blood pressure was recorded for one hour before treatment (basal period). Thereafter, the subcutaneous administration of the test compound or its vehicle was performed, under continuous recording of the signal up to 48 hours, analysed and expressed as % change from baseline.
Representative data are presented in Table 13 below, in which “Duration of action” indicates the last time point for which an effect on BP was still observed (n=2 animals/peptide)

[3] = biological target: T2, human CRF2a receptor (Homo sapiens, UniProt Q13324); assay: Activity at human CRF2a receptor, cAMP functional assay in TeloHEAC cells; format: cell-based; settings: TeloHEAC cells stably expressing human CRF2a receptor, relative to urocortin 2 (100 nM = 100%)
T2 construct: expressed in transfected cells; host or cells: TeloHEAC cells
T2 sequence (Q13324 1-411): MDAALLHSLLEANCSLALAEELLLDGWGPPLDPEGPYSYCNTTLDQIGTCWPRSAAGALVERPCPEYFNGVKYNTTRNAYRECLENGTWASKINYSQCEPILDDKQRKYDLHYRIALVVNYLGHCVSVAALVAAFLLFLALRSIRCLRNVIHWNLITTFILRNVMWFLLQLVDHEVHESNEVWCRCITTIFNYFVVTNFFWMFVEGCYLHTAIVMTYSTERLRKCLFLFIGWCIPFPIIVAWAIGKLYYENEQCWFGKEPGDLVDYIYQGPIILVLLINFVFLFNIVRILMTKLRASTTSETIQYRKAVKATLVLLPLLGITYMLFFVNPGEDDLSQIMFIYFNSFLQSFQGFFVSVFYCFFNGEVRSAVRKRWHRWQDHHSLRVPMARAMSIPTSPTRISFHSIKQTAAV
Method in brief: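 TeloHEAC cells stably expressing human CRF2a (10000 cells/well) were treated with 16-point 1:2 compound dilutions in HBSS/20 mM HEPES with IBMX for 30 min at 37° C. cAMP was read by HTRF (665/620 nm ratio). EC50 was the concentration giving 50% activation, with 100 nM urocortin 2 set as 100%.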

SMILES	Emax (% I) [1]	EC50 ([1]; cAMP)	Systolic blood pressure (Mean) % change from baseline, 8 h [2]	Systolic blood pressure (Mean) % change from baseline, 12 h [2]	Systolic blood pressure (Mean) % change from baseline, 24 h [2]	Duration of action [2]	EC50 [3]
CCCCC(=O)N[C@H](C(=O)N[C@@H](CC(C)C)C(=O)N[C@@H](CO)C(=O)N[C@@H](CC(C)C)C(=O)N[C@@H](CC(=O)O)C(=O)N[C@@H](C(=O)N1CCC[C@H]1C(=O)N[C@H](C(=O)N[C@@H](CCCCN)C(=O)N[C@@H](CC(C)C)C(=O)N[C@@H](CCCCNC(=O)CC[C@H](NC(=O)CCCCCCCCCCCCCCCCCCC(=O)O)C(=O)O)C(=O)N[C@@H](CCCCN)C(=O)N[C@H](C(=O)N[C@@H](CC(C)C)C(=O)N[C@@H](CC(C)C)C(=O)N[C@@H](CCC(=O)O)C(=O)N[C@@H](CCC(N)=O)C(=O)N[C@@H](CCC(=O)O)C(=O)N[C@@H](CCCCN)C(=O)N[C@@H](CCC(N)=O)C(=O)N[C@@H](CCCCN)C(=O)NC(C)(C)C(=O)N[C@@H](CCC(N)=O)C(=O)N[C@@H](CCCNC(=N)N)C(=O)N[C@@H](CCC(=O)O)C(=O)N[C@@H](CCC(N)=O)C(=O)N[C@@H](C)C(=O)N[C@@H](CCC(=O)O)C(=O)N[C@H](C(=O)N[C@@H](CC(N)=O)C(=O)NC(C)(C)C(=O)N[C@@H](CCC(N)=O)C(=O)N[C@H](C(=O)N[C@@H](CC(C)C)C(=O)N[C@@H](C)C(=O)N[C@@H](CCC(N)=O)C(=O)N[C@H](C(N)=O)C(C)C)[C@@H](C)CC)[C@@H](C)O)[C@@H](C)CC)[C@@H](C)CC)C(C)C)C(C)C [compound 220] (Pentanoyl-VLSLD[dV]PIKLK([γGlu-C20 diacid])KILLEQEKQK[Aib]QREQAETN[Aib]QILAQV-NH2)	32 % I	> 250 nM	−17%	−14%	−11%	>24 h	0.27 nM
CC[C@H](C)[C@H](NC)C(=O)N[C@H](C(=O)N[C@@H](CC(C)C)C(=O)N[C@@H](CO)C(=O)N[C@@H](CC(C)C)C(=O)N[C@@H](CC(=O)O)C(=O)N[C@@H](C(=O)N1CCC[C@H]1C(=O)N[C@H](C(=O)NCC(=O)N[C@@H](CC(C)C)C(=O)N[C@@H](CCCCNC(=O)CC[C@H](NC(=O)CCCCCCCCCCCCCCCCCCC(=O)O)C(=O)O)C(=O)N[C@@H](CCCCN)C(=O)N[C@H](C(=O)N[C@@H](CC(C)C)C(=O)N[C@@H](CC(C)C)C(=O)N[C@@H](CCC(=O)O)C(=O)N[C@@H](CCC(N)=O)C(=O)N[C@@H](CCC(=O)O)C(=O)N[C@@H](CCCCN)C(=O)N[C@@H](CCC(N)=O)C(=O)N[C@@H](CCCCN)C(=O)N[C@@H](CCCCN)C(=O)N[C@@H](CCC(N)=O)C(=O)N[C@@H](CCCNC(=N)N)C(=O)N[C@@H](CCC(=O)O)C(=O)N[C@@H](CCC(N)=O)C(=O)N[C@@H](C)C(=O)N[C@@H](CCC(=O)O)C(=O)N[C@H](C(=O)N[C@@H](CC(N)=O)C(=O)NC(C)(C)C(=O)N[C@@H](CCC(N)=O)C(=O)N[C@H](C(=O)N[C@@H](CC(C)C)C(=O)N[C@@H](C)C(=O)N[C@@H](CCC(N)=O)C(=O)N[C@H](C(N)=O)C(C)C)[C@@H](C)CC)[C@@H](C)O)[C@@H](C)CC)[C@@H](C)CC)C(C)C)C(C)C [compound 229] (H-[NMeI]VLSLD[dV]PIGLK([γGlu-C20 diacid])KILLEQEKQKKQREQAETN[Aib]QILAQV-NH2)	43 % I	–	−12%	−9%	−5%	>24 h	0.11 nM
